According to patent US12054466B2, “Compounds for the treatment of clostridium difficile infection” (University of Notre Dame du Lac, priority 2016, dated 2024):
Read-outs that look alike come from different tables or passages of the source.

Assays:
[1] = cited from earlier work
[2] = tested on: C. difficile strain ATCC 43255; experiment: Mouse model of recurrent CDI, survival; conditions: po once a day for 5 days; oxadiazole 2 20 mg/kg/day, vancomycin 50 mg/kg/day
C. difficile ATCC43255 = experiment: Inhibition of vegetative cells, spores and toxins in exponential phase cells
[3] = Pharmacokinetics after single po and iv administration
[4] = tested on: DNA, protein and peptidoglycan synthesis in C. difficile ATCC 43255; experiment: Macromolecular synthesis assays; type: cell-based
Excerpt: Macromolecular synthesis assays. The method of Mathur et al (J Antimicrob Chemother 2011, 66(5), 1087) was used with a few modifications. [2,8-^3H]-adenine (40 Ci/mmol), 1-[3,4,5-^3H(N)]-leucine (120 Ci/mmol), and N-acetyl-d-[6-^3H]-glucosamine (30 Ci/mmol) were purchased from Perkin Elmer (Waltham, MA). Ciproflaxin, linezolid, and oxacillin, were used as positive controls for DNA, protein, and peptidoglycan, respectively. Ciprofloxacin and oxacillin were purchased from Sigma-Aldrich (St. Louis, MO), linezolid was obtained from AmplaChem Inc. (Carmel, IN). […] Aliquots were taken every 30 min for radioactive counting and viability. Optimal incubation times were 60 min for DNA, 180 min for protein, and 120 min for peptidoglycan.

[5] = Toxicity and fecal concentration after multiple oral doses
[6] = tested on: C. difficile strain ATCC 43255; experiment: Mouse model of recurrent CDI, second study: fecal cell, spore and toxin evaluation; type: in vivo, mice
Method: C. difficile Mouse Model. […] A negative vehicle control will be included. […] This study was conducted in duplicates.
A second study was conducted with oxadiazole 2 given po at 20 or 40 mg/kg for 5 days and vancomycin administered at 50 mg/kg po for 5 days. Fecal samples were collected on days 3, 7, and 10 for C. difficile spore and toxin evaluation.

[7] = mouse, in vivo, po, 20 mg/kg, 24 h
C. difficile = experiment: MIC against C. difficile (strain not named; 14 strains overall); type: cell-based, Clostridium difficile; conditions: 14 C. difficile strains
C. difficile infection = conditions: cited from earlier work
[8] = summary statement, species not given
[9] = 40 mg/kg/day po for 5 days, uninfected mice
[10] = female, C57B1/6, mouse, feces, po, 40 mg/kg/day

FC(F)(F)c1ccc(Oc2ccc(-c3noc(-c4ccc5[nH]ccc5c4)n3)cc2)cc1 [Compound 1]
clearance ([1]; in words): low clearance
Oral bioavailability [1, 8]: 97%
Terminal half-life [1, 8]: 18.6 h

Oc1ccc(-c2nc(-c3ccc(OC4CCCC4)cc3)no2)cc1 [Compound 2]
Survival after 25 days [2]: 70%
Concentration that inhibited growth of vegetative cells (C. difficile ATCC43255; 24 hours): 1 ×MIC
Concentration that inhibited toxin production (C. difficile ATCC43255; 24 hours, TcdA and TcdB by ELISA): 1 ×MIC
Concentration that inhibited spore production (C. difficile ATCC43255; 48 hours): ¼
Concentration that inhibited toxin production (C. difficile ATCC43255; 48 hours): 1 ×MIC
Concentration that inhibited spores (C. difficile ATCC43255; 72 hours): 1 ×MIC
Concentration that inhibited toxin production (C. difficile ATCC43255; 72 hours): 1 ×MIC
Concentration that inhibited vegetative cells (C. difficile ATCC43255; 72 hours): 1 ×MIC
Clearance as share of hepatic blood flow ([3]; mice, 20 mg/kg iv): approximately 20%
Absolute oral bioavailability F ([3]; mice, 20 mg/kg po vs iv, 20 mg/kg): 4%
concentration at 24 h ([3]; mouse, feces, po, 20 mg/kg): 43000 ± 3000 ng/g
AUC(0-inf) ([3]; mouse, plasma, iv, 20 mg/kg): 19200 ng·h/mL
Vd ([3]; mouse, plasma, iv, 20 mg/kg): 1.8 L/kg
clearance ([3]; mouse, plasma, iv, 20 mg/kg): 17.4 mL/min/kg
half-life ([3]; mouse, plasma, iv, 20 mg/kg): 1.2 h
bioavailability ([3]; mouse, plasma, oral, 20 mg/kg, Absolute oral bioavailability F, mice, 20 mg/kg po vs iv): 3.8%
AUC(0-inf) ([3]; mouse, plasma, po, 20 mg/kg): 733 ng·h/mL
Cmax ([3]; mouse, plasma, po, 20 mg/kg): 300 ng/mL
half-life ([3]; mouse, plasma, po, 20 mg/kg): 1.1 h
Inhibition of peptidoglycan synthesis ([4]; N-acetyl-d-[6-3H]-glucosamine incorporation, ½ MIC, 120 min): 54.8±3.7%
Inhibition of DNA synthesis ([4]; [2,8-3H]adenine incorporation, in words): not significant
Inhibition of protein synthesis ([4]; l-[3,4,5-3H(N)]-leucine incorporation, in words): not significant
Tolerability [5, 9]: well tolerated
Weight loss [5, 9]: did not result in weight loss
Body weight ([5]; Day 1, 40 mg/kg/day po for 5 days, uninfected mice): 19.6 ± 0.6 g
Body weight ([5]; Day 2, 40 mg/kg/day po for 5 days, uninfected mice): 19.8 ± 0.6 g
Body weight ([5]; Day 3, 40 mg/kg/day po for 5 days, uninfected mice): 19.8 ± 1.0 g
Body weight ([5]; Day 4, 40 mg/kg/day po for 5 days, uninfected mice): 19.7 ± 1.0 g
Body weight ([5]; Day 5, 40 mg/kg/day po for 5 days, uninfected mice): 19.4 ± 0.6 g
Oxadiazole 2 in Feces ([5]; Day 5, 40 mg/kg/day po for 5 days, uninfected mice, 40 mg/kg/day): 30.8 ± 11.1 μg/g feces
concentration at 5 day ([5]; female, C57B1/6, mouse, feces, oral, 40 mg/kg): 30800 ng/mL
concentration at 1 day [5, 10]: 9800 ± 400 ng/g
concentration at 2 day [5, 10]: 15000 ± 3700 ng/g
concentration at 3 day [5, 10]: 18100 ± 2400 ng/g
concentration at 4 day [5, 10]: 16900 ± 1800 ng/g
concentration at 5 day [5, 10]: 30800 ± 11100 ng/g
Decrease in spores in feces ([6]; 20 mg/kg group): 3 log
Total cell counts in feces, lower on day 10 compared to day 3 ([6]; 20 mg/kg/day for 5 days): 3.44 log
Spores in feces ([6]; 40 mg/kg group, days 3, 7 and 10, in words): no spores were observed at any time
Toxin production in feces ([6]; 40 mg/kg group, in words): no toxin production was detected
Total cell counts in feces, lower on day 10 compared to day 3 ([6]; 40 mg/kg/day for 5 days): 4.68 log
Reduction in spores in feces ([6]; b100, 20 mg/kg): 1.85 log
Reduction in vegetative cells in feces by day 10 ([6]; dose of compound 2 not stated): about 3 log
Level in feces as multiple of MIC [7]: approximately 20 ×MIC

CCc1c(Cl)c(O)c(Cl)c(O)c1C(=O)O[C@H]1[C@H](O)[C@H](OC)[C@H](OC/C2=C\C=C\C[C@H](O)/C(C)=C/[C@H](CC)[C@@H](O[C@@H]3OC(C)(C)[C@@H](OC(=O)C(C)C)[C@H](O)[C@@H]3O)/C(C)=C/C(C)=C/C[C@@H]([C@@H](C)O)OC2=O)O[C@@H]1C [fidaxomicin]
MIC range in 14 C. difficile strains (C. difficile): <0.01 to 0.25 µg/mL
Treatment failure (C. difficile infection; CDI): 12%
Patients with recurrence of the infection (C. difficile infection; patients treated for CDI): About 25%
